Measurements as given in US10945971B2, “Sphingosine kinase type 1 inhibitors and uses thereof” (Enzo Therapeutics, Inc., priority 2008, dated 2021).

Tests used:
AML xenograft tumors = conditions: U.S. Ser. No. 12/387,228; cited from earlier work
LN229 cells [1] = test: Colony formation (clonogenic) assay, LN229 cells; type: cell-based, human
Protocol: Cells were plated at a density of 1000 cells/well in a 12-well plate in DMEM containing 5% serum. After 8 h, SK1-I was added and 2 h later, the media was changed. After 10 days, cells were fixed in 4% paraformaldehyde and stained with crystal violet (0.05%). Colonies larger then 0.5 mm in diameter were counted.

[2] = Metabolism of SK1-I in cells by LC-ESI-MS/MS; type: in vitro ADME
Description: Lipids were extracted and phosphorylated and unphosphorylated sphingoid bases, individual ceramide acyl chain species, as well as SK1-I and its metabolites were quantified by liquid chromatography, electrospray ionization-tandem mass spectrometry (LC-ESI-MS/MS) as described previously (Merrill et al. Methods 36:207-224, 2005).

U118 cells = test: Proliferation of U118 glioblastoma cells; type: cell-based, human
Protocol: (§1) Cells were plated at 10,000 cells/well in 48-well plates and allowed to attach for 24 h. Cell proliferation was measured at the indicated times with WST-1 and absorbance was measured in a plate reader at 450 nm with background subtraction at 630 nm. Cell death was detected by trypan blue exclusion assays in which the percent of blue dye incorporating cells were determined using a light microscope and a hemacytometer as described (Yacoub et al. Mol Cancer Ther 7:314-329, 2008). Apoptotic cell death was measured by staining cell nuclei with the Hoechst dye bisbenzimide and apoptotic cells were identified by condensed, fragmented nuclear regions as described previously (Sankala et al. Cancer Res 67:10466-10474, 2007). A minimum of 300 cells was scored.

LN229 cells [3] = test: Apoptosis of LN229 cells (PARP cleavage, nuclear condensation, TUNEL); type: cell-based, human
Protocol: Cells were grown on 3-aminopropyl-triethoxysilane-treated 15 mm glass cover slips in 24 well plates. Following treatments, cells were washed with PBS, fixed with 3% paraformaldehyde for 10 min at room temperature, and blocked in TBST buffer containing 1% BSA. After washing, cells were incubated in the same buffer containing Alexa-conjugated phalloidin for 30 min, followed by 15 min incubation in 10 μg/ml of Hoechst 33342. For TUNEL assays, fixed cells were permeabilized with 0.5% TX-100 for 30 min, washed and incubated in TdT buffer supplemented with 250 μM CoCl2, 20 units TdT (NEB, Ipswich, Mass.) and 1 nM fluorescein-12-dUTP (Roche) for 1 h at 37° C. […]
as §1, with “A minimum of 300 cells was scored.” left out

Akt = test: Western blotting of Akt phosphorylation, GBM6 cells; type: cell-based, human; conditions: GBM6, shortly following treatment
Protocol: (§2) Cells were scraped in buffer containing 20 mM Tris-HCl, pH 7.5, 50 mM NaCl, 50 mM NaF, 30 mM Na4P2O7, 20 mM 2-glycerophosphate, 1 mM Na3VO4, 5 mM EDTA, 2 mM EGTA, 0.5% SDS and protease inhibitor cocktail (1:200 dilution) and probe-sonicated. Equal amounts of protein determined with bicinchoninic acid (Pierce, Rockford, Ill.), were resolved by SDS-PAGE and transferred to nitrocellulose membranes. Blots were blocked with 5% non-fat dry milk in Tris-buffered saline containing 0.1% […] (TBST) for 1 h at room temperature, and then incubated with primary antibodies (1:3,000 in 1% BSA) overnight, followed by the appropriate HRP-conjugated secondary antibodies (1:40,000 in 1% BSA). Immunocomplexes were visualized by enhanced chemiluminescence (Pierce).

[4] = U.S. Ser. No. 12/387,228; cited from earlier work
LN229 xenograft tumors = test: Subcutaneous LN229 xenograft tumors in nu/nu mice; type: in vivo; conditions: 10 mg/kg i.p. every other day
Protocol: Adult male NCI nu/nu mice were purchased from NCI (Frederick, Md.). All animal studies were conducted in the Animal Research Core Facility at VCU School of Medicine in accordance with the institutional guidelines. LN229 cells (1×10^6) were injected in the flanks (4 sites per mouse). Palpable tumors appeared in about one week. Five days later, when tumors reached 3-4 mm in diameter, mice were randomly separated into 2 groups and injected i.p. with saline or SK1-I (10 mg/kg) every other day. Tumor measurements were made with calipers, and tumor volume was calculated using the formula: (π×[length in millimeters]×[width in millimeters]2)/6. At the end of the experiment, the animals were euthanized and the tumors removed, fixed in formalin and embedded in paraffin, or frozen in liquid nitrogen.
Paraffin sections were dewaxed, rehydrated, incubated with proteinase K before permeabilization, and then stained with hematoxylin-eosin. Frozen sections were dried, fixed in formalin, and stained with antibodies against mouse CD-31 (BD Pharmingen, San Jose, Calif.), or rabbit antibodies against phospho-Akt (Ser473) (Cell Signaling) followed by immunohistochemistry with Alexa-488-conjugated species-specific secondary antibodies. Cryosections were air dried, permeabilized with 0.5% Triton X-100, and stained with a fluorescein TUNEL labeling kit (Roche Applied Sciences, Indianapolis, Ind.) followed by counterstaining with Hoechst. Sections were also stained with goat anti-human VEGF affinity-purified antibody (R&D), visualized with anti-goat horseradish peroxidase-diaminobenzidene staining kit (R&D) and counterstained with hematoxylin.

ERK1/2 = test: Western blotting of ERK1/2 activation, U373 cells; type: cell-based, human
Protocol: as §2

LN229 cells [5] = test: Cell proliferation (WST-1), LN229 cells; type: cell-based, human
Protocol: (§3) U373-MG and LN229 human glioblastoma cells (ATTC, Manassas, Va.) were cultured in DMEM supplemented with 5% FCS. Primary human non-established glioblastoma GBM6 cells were kindly provided by Dr. C. David James and were passaged as tumors in nude mice and subcultured for 1 week following isolation from tumors in media containing 2% FCS to prevent growth of contaminating rodent fibroblasts and then cultured in 5% FCS as described (Yacoub et al., Mol Cancer Ther 7:314-329, 2008). LN229 cells were transfected with H2B-EGFP plasmid and stable colonies were isolated following selection with 1 mg/ml of G418. LN229-H2B-EGFP cells were passaged as tumors as described above.
as §1

GBM6 glioblastoma cells = test: Cell proliferation (WST-1), primary non-established GBM6 cells; type: cell-based, human
Protocol: as §3
as §1, with “A minimum of 300 cells was scored.” left out

CCCCCc1ccc(/C=C/[C@H](O)[C@@H](CO)NC)cc1 [SK1-I, (2R,3S,4E)-N-methyl-5-(4′-pentylphenyl)-2-aminopent-4-ene-1,3-diol]
tumor growth (AML xenograft tumors): inhibited growth
long-term survival in clonogenic assays (LN229 cells [1]): markedly suppressed
other metabolites ([2]; after 24 h): no other metabolites were detected
phosphorylation of the compound ([2]; in contrast to FTY720): not readily phosphorylated
proliferation (U118 cells): suppress proliferation
apoptosis (PARP cleavage, fragmented and condensed nuclei, TUNEL) (LN229 cells [3]): induced apoptosis
basal and serum- and EGF-stimulated phosphorylation of Akt (Akt): reduced
water solubility [4]: water-soluble
TUNEL positive apoptotic tumor cells (LN229 xenograft tumors): increased numbers
VEGF expression in tumors (LN229 xenograft tumors): greatly reduced
blood vessel density (CD31 staining) (LN229 xenograft tumors): reductions
phosphorylated Akt immunostaining in tumors (LN229 xenograft tumors): markedly decreased
vascularization in tumors (hematoxilin and eosin) (LN229 xenograft tumors): decreased vascularization
reduction of tumor weight (LN229 xenograft tumors; after 43 days, vs vehicle): ~4 fold
tumor volume (LN229 xenograft tumors; vs control, single factor ANOVA): significantly smaller tumors
EGF- and serum-induced ERK1/2 activation (ERK1/2): did not reduce
cell growth (LN229 cells [5]; LN229, 10 μM, absence of serum): strongly inhibited growth
cell numbers (LN229 cells [5]; LN229, 10 μM, presence of serum, within 2-4 days): severe reductions in cell numbers
concentration at which a significant growth inhibitory effect was observed (LN229 cells [5]; LN229 cells): 3 µM
cell growth (GBM6 glioblastoma cells; GBM6, 10 μM, presence of serum): markedly reduced growth
lowest concentration with significant growth inhibition (GBM6 glioblastoma cells; GBM6, absence of serum): 1 µM
